# Test results taken from publication PMC9505538, “P-Glycoprotein (MDR1/ABCB1) Restricts Brain Accumulation of the Novel EGFR Inhibitor EAI045 and Oral Elacridar Coadministration Enhances Its Brain Accumulation and Oral Exposure” (Pharmaceuticals, 2022).
# Conditions: mouse, in vivo
# Protocol: A 4-h pilot experiment was performed in female wild-type (WT) and double-knockout Abcb1a/1b;Abcg2^-/- mice, with oral administration of 20 mg/kg EAI045. As shown in Supplemental Figure S2A,B, EAI045 was very rapidly absorbed in all strains, with an apparent tmax around 5 min.
# We further measured the brain, liver, kidney, spleen, lung, and small intestine with content (SIWC) concentrations of EAI045 4 h after oral administration. Whereas at t = 4 h the plasma concentrations between the two strains were similar, the brain concentrations and brain-to-plasma ratios in Abcb1a/1b;Abcg2^-/- mice were dramatically higher than those in WT mice (25-fold and 12-fold, respectively, Supplemental Figure S3A,B). […] In contrast, the small intestine with content (SIWC) percentage of dose (SIWC%) and SIWC%-to-plasma ratio was reduced in Abcb1a/1b;Abcg2^-/- mice (Supplemental Figure S3K,L).
# Mice (Mus musculus) were bred in the Netherlands Cancer Institute and housed and handled according to institutional guidelines complying with Dutch and EU legislation. Animals used were WT, Abcb1a/1b^-/- [39], Abcg2^-/- [40], Abcb1a/1b;Abcg2^-/- [41], Cyp3a^-/- [42], and Oatp1a/1b^-/- [43] mice of a >99% FVB/N strain background. Homozygous CYP3A4 humanized transgenic mice (Cyp3aXAV) were generated by cross-breeding of transgenic mice with stable human CYP3A4 expression in the liver or intestine, respectively, in a Cyp3a^-/- background. Proper functionality of the knockout and transgenic strains was monitored by regular testing with a variety of drug substrates. All the mice used were between 10 and 15 weeks of age. Animals were kept in a temperature-controlled environment with a 12 h light/12 h dark cycle and received a standard diet (Transbreed, SDS Diets, Technilab-BMI, The Netherlands) and acidified water ad libitum. Depending on the type of experiment, 5 or 6 mice were tested in each experimental group. All experimental animal protocols, including power calculations, were ethically assessed and designed under the nationally approved DEC/CCD project AVD301002016595 (approval date, 10 August 2016) and evaluated and approved by the institutional animal care and use committee (IACUC) of the Netherlands Cancer Institute.
# EAI045 was dissolved in dimethyl sulfoxide (DMSO) at a concentration of 4 mg/mL, and then diluted with a mixture of polysorbate 80/ethanol (1:1, v/v), and further diluted with 5% (w/v) glucose in water to yield a concentration of 2 mg/mL. Final concentrations for DMSO, polysorbate 80, ethanol, and glucose in the dosing solution were 5%, 2.5%, 2.5%, and 4.5% (v/v/v/w), respectively. […]
structure (smiles),measurement,setting,value
O=C(Nc1nccs1)C(c1cc(F)ccc1O)N1Cc2ccccc2C1=O (stereo not shown) [EAI045],percentage of dose left in intestinal lumen (SIWC%),,1.7%
same,apparent tmax,"po, 20 mg/kg",around 5 min
same,plasma exposure over 4 h (AUC0–4h),"po, 20 mg/kg",not meaningfully altered
same,brain-to-plasma ratio,"po, 20 mg/kg, 4 h",0.15
